In brackets after ≈: the same amount, converted by molar mass. Like-named read-outs stand apart in the source and are kept apart here.
What was measured:
P. falciparum [1] = experiment: microbe, parasite or virus in culture; assay type: cell-based, Plasmodium falciparum; settings: for IC50: Plasmodium falciparum
Protocol: Because Fab I was located, the effects of triclosan on Plasmodium falciparum in vitro were investigated. For P. falciparum, the in vitro assays (Milhous et al., 1985; Oduola et al., 1988) were conducted using a modification of the semiautomated microdilution technique for assessing anti-folate antagonists. Instead of dialysed human plasma, 10% Albumax I (Gibco BRL), a serum-free substitute, was used to supplement the RPMI 1640 medium. All test compounds were dissolved in DMSO and diluted 400-fold into complete medium before serial dilution over 11 concentrations. Incubation was at 37° C. in 5% O2, 5% CO2 and 90% N2 for 48 h. [3H]-Hypoxanthine incorporation was measured as described previously (Milhous et al, 1985; Oduola et al, 1988).
P. falciparum. The in vitro assays (Oduala et al., 1988; Milhous et al., 1985) were conducted using a modification of the semiautomated microdilution technique for assessing antifolate antagonists. Instead of dialysed human plasma, 10% Albumaz I (Gibco BRL), a serum-free substitute, was used to supplement the RPMI 16-40 media. All test compounds were dissolved in DMSO and diluted 400-fold into complete media before serial dilution over 11 concentrations. Incubation was at 37° C. in 5% O2, 5% CO2 and 90% N2 for 48h, [3H]-Hypoxanthine incorporation was measured as described previously (13, 14).

T. gondii [2] = experiment: T. gondii growth inhibition in human foreskin fibroblasts, 3H uracil uptake; assay type: cell-based, Toxoplasma gondii; settings: for percentage inhibition of T. gondii uracil uptake: 125 nanograms per ml
Protocol: For T. gondii, growth inhibition was assessed over a 4-day period as described previously (Mack et al., 1984; Roberts et al., 1998; Zuther et al., 1999) using human foreskin fibroblasts (HFF) infected with 105 tachyzoites of the RH strain of T. gondii. The assays are based on microscopic visual inspection of infected and inhibitor treated cultures, and on quantitation of nucleic acid synthesis of the parasite by measuring uptake of 3H uracil into the parasite's nucleic acid. Uracil is not utilized by mammalian cells. Parasites present as tachyzoites (RH, Ptg., a clone derived from the Me49 strain), bradyzoites (Me49), and R5 mutants (mixed tachyzoites/bradyzoites of the Me49 strain that can be stage switched by culture conditions) (Bohne et al., 1993; Soete et al., 1994; Tomovo and Boothroyd, 1995; Weiss et al., 1992) are suitable for assay systems used to study effectsof inhibitors. Only the RH strain tachyzoites, cultured for up to 72 hours, had been used in previously reported assays. The use of Me49, Ptg, and R5 mutants are unique aspects of the methods used in these assays in this invention.
(§1) In these assays toxicity of a candidate inhibitor was assessed by its ability to prevent growth of human foreskin fibroblasts (HFF) after 4 days and after 8 days as measured by tritiated thymidine uptake and microscopic evaluation. Confluent monolayers of HFF were infected with tachyzoites and bradyzoites. Inhibitor was added one hour later. Non-toxic doses were used in parasite growth inhibition assays. Parasite growth was measured by ability to incorporate tritiated uracil during the last 48 hours of culture.
T. gondii in vitro. Growth inhibition was assessed over a 4-day period as described previously by Roberts et al., 1998; Zuther et al., 1999; and Mack et al., 1984, all incorporated by reference, using human foreskin fibroblasts (HFF) infected with 105 tachyzoites of the RH strain of T. gondii. Uptake of 3H uracil was determined. Evaluation of slides of preparations containing HFF, Toxoplasma and inhibitors were made.

[3] = test system: human foreskin fibroblasts (HFF); experiment: Toxicity to host cells, tritiated thymidine uptake and microscopic evaluation; assay type: cell-based; settings: at concentrations effective against T. gondii
Protocol: as §1

P. berghei = P. berghei murine model; assay type: in vivo; settings: subcutaneously, 3 or 38 mg/kg
P. falciparum FAB I = P. falciparum FAB I (Plasmodium falciparum, UniProt Q9BH77); experiment: Fab I enzyme activity (NADH dependent); assay type: biochemical; settings: purified P. falciparum FAB I
Sequence of P. falciparum FAB I (Q9BH77 entry or part of it): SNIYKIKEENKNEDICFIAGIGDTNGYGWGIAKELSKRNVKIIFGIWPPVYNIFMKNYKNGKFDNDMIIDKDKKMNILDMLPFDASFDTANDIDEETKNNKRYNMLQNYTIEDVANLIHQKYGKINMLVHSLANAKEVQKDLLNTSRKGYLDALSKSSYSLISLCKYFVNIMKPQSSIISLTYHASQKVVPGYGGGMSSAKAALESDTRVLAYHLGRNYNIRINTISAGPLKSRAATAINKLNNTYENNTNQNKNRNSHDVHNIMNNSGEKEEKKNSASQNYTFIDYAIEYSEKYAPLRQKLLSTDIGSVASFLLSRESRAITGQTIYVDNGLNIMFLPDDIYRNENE

Cryptosporidia = assay type: cell-based
T. gondii [4] = settings: literature (Waller et al., 1998; Zuther et al., 1999); cited from earlier work
EPSP synthase = EPSP synthase enzyme activity; assay type: biochemical, T. gondii; settings: 1 mM
P. falciparum [5] = experiment: In vitro synergy with cerulein; design: species or system Plasmodium falciparum; settings: cerulein (inhibitor of Fab F, B, H) with triclosan
[6] = 48 h, read-out: IC 50 when cultured with P Falciparum, strain TM91C234, 48 h
[7] = 48 h, read-out: IC 50 when cultured with P Falciparum, strain W2 (chloroquine and pyrimethamine resistant), 48 h
[8] = TM90C2A, 48 h, read-out: IC 50 when cultured with P Falciparum, strain TM90C2A (chloroquine and mefloquine resistant, admission isolate), 48 h
[9] = TM90C2B, 48 h, read-out: IC 50 when cultured with P Falciparum, strain TM90C2B (recrudescent isolate, atovaquone resistant), 48 h

OC(c1cc(C(F)(F)F)nc2c(C(F)(F)F)cccc12)C1CCCCN1 (stereo not shown) [Mefloquine]
IC50 (P. falciparum [1]; 48 h, read-out: IC 50 when cultured with P Falciparum): 0.0053 µg/mL (≈ 0.014 µM)
IC50 (P. falciparum [1]; [6]): 0.0196 µg/mL (≈ 0.0518 µM)
IC50 (P. falciparum [1]; [7]): 0.002 µg/mL (≈ 0.00529 µM)
IC50 (P. falciparum [1]; [8]): 0.0245 µg/mL (≈ 0.0648 µM)
IC50 (P. falciparum [1]; [9]): 0.0193 µg/mL (≈ 0.051 µM)

CCN(CC)CCCC(C)Nc1ccnc2cc(Cl)ccc12 (stereo not shown) [Chloroquine]
IC50 (P. falciparum [1]; 48 h, read-out: IC 50 when cultured with P Falciparum, strain D6 (chloroquine and pyrimethamine susceptible), 48 h): 0.0038 µg/mL (≈ 0.0119 µM)
IC50 (P. falciparum [1]; [6]): 0.0461 µg/mL (≈ 0.144 µM)
IC50 (P. falciparum [1]; [7]): 0.162 µg/mL (≈ 0.508 µM)
IC50 (P. falciparum [1]; [8]): 0.0573 µg/mL (≈ 0.179 µM)
IC50 (P. falciparum [1]; [9]): 0.0827 µg/mL (≈ 0.259 µM)
IC50 (P. falciparum [1]; W2, read-out: IC50 against pyrimethamine resistant P. falciparum (W2), strain W2, text value): 0.16 µg/mL (≈ 0.5 µM)

Oc1cc(Cl)ccc1Oc1ccc(Cl)cc1Cl [Triclosan, 5-chloro-2-[2,4 dichloropheoxyl] phenol]
IC50 (P. falciparum [1]; 48 h, strain TM91C234, 48 h, read-out: IC 50 when cultured with P Falciparum): 1.8 µg/mL (≈ 6.22 µM)
IC50 (P. falciparum [1]; TM90C2A, 48 h, read-out: IC 50 when cultured with P Falciparum): 1.89 µg/mL (≈ 6.53 µM)
IC50 (P. falciparum [1]; TM90C2B, 48 h, strain TM90C2B (recrudescent isolate, atovaquone resistant), 48 h, read-out: IC 50 when cultured with P Falciparum): 1.33 µg/mL (≈ 4.59 µM)
IC50 (P. falciparum [1]; W2, strain W2, text value, read-out: IC50 against pyrimethamine resistant P. falciparum (W2)): 0.15 µg/mL (≈ 0.518 µM)
IC50 (P. falciparum [1]; range over strains, read-out: IC50, growth and survival of P. falciparum): 0.15 to 2 µg/mL (≈ 0.518 to 6.91 µM)
percentage inhibition of T. gondii uracil uptake (T. gondii [2]; day 1, separate experiment): 20%
percentage inhibition of T. gondii uracil uptake (T. gondii [2]; day 4, separate experiment): 72%
IC50, T. gondii uracil uptake (T. gondii [2]; RH strain in HFF, 4 days after infection): 62 nanograms/ml
IC50 (T. gondii [2]; Toxoplasma gondii, Fibroblast, 96 h, read-out: IC50, T. gondii uracil uptake): 0.062 µg/mL (≈ 0.214 µM)
toxicity to host cells / host cells uptake of thymidine [3]: no toxicity
toxicity to host cells / host cells uptake of thymidine ([3]; listed as triclosan): no inhibitory effect
death (P. berghei): prevented death
parasitemia (P. berghei): cleared parasitemia
toxicity in P. berghei murine model (P. berghei): nontoxic
FAB I enzyme activity (P. falciparum FAB I): inhibited

Oc1cccc2cccnc12 [8-OH-quinoline]
effect on Cryptosporidia (Cryptosporidia): inhibitory effects

C[C@@H](Oc1ccc(Oc2ncc(Cl)cc2F)cc1)C(=O)O [clodinafop]
inhibition of T. gondii (T. gondii [2]; 1 micromolar): ionhibited

NC1C=CC=C(C(=O)O)C1 (racemic) [gabaculine]
effect on Cryptosporidia (Cryptosporidia): inhibitory effects

O=C(O)CC[N+](=O)[O-] [3NPA]
effect on Cryptosporidia (Cryptosporidia): inhibited

C=C/C(C)=C/[C@@]1(C)SC(=O)C(C)=C1O [thiolactomycin]
growth of T. gondii in vitro (T. gondii [4]): restrict the growth

O=C(O)CNCP(=O)(O)O [NPMG]
in vitro growth of asexual erythrocytic forms (P. falciparum [1]; P. falciparum): inhibition
uptake of tritiated uracil by tachyzoites (T. gondii [2]; RH strain): inhibited
EPSP synthase enzyme activity (EPSP synthase): inhibition
effect on Cryptosporidia (Cryptosporidia): inhibitory effects

O=C(NO)c1ccccc1O [SHAM]
effect on Cryptosporidia (Cryptosporidia): inhibitory effects

C/C=C/C/C=C/CCC(=O)[C@H]1O[C@H]1C(N)=O
synergy in vitro (P. falciparum [5]): Synergy
